Here are results for 11 compounds from PMC5415848, “Structural basis of molecular recognition of helical histone H3 tail by PHD finger domains” (Biochemical Journal, 2017).

Broadly, the Kd is a measure of binding affinity in units of concentration.

Residue numbers refer to the chain shown, from its start. Like-named read-outs stand apart in the source and are kept apart here. Residues, ends and D or L forms follow the SMILES beside them. No end group written: not given here.

Holding throughout (format): binding
The target of one assay is T1, BAZ2B PHD (Homo sapiens, UniProt Q9UIF8).
T1 construct: The small PHDs (∼6.5 kDa) of both BAZ2A and BAZ2B; made in house
T1 sequence (Q9UIF8 1931-1981 limits assumed): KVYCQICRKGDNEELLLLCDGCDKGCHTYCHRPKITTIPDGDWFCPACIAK
Briefly: ITC, H3 peptides titrated into BAZ2B PHD (WT). To be noted: for effect on binding, in words: compared with H3 10-mer WT. How it is done:
(§1) All calorimetric experiments were performed on a MicroCal iTC200 microcalorimeter (GE Healthcare) at 25°C in a buffer containing 20 mM HEPES at a pH of 8, 150 mM NaCl and 0.5 mM Tris(2-carboxyethyl) phosphine. All ITC experiments were carried out titrating peptide solutions (1.5–3 mM) into protein solutions (80–120 µM) loaded in the calorimeter cell, performing one first injection of 0.4 µl followed by 19 injections of 2 µl. The data were analyzed using the MicroCal™ software package subtracting the data from an independent titration of peptide into buffer to account for heat of dilution, and then fitted using a single-binding site model. Protein concentration was determined by measuring absorbance at 280 nm using the following extinction coefficients: BAZ2A PHD ε280 = 6990 M^−1 cm^−1 and BAZ2B PHD ε280 = 8480 M^−1 cm^−1. Lyophilized peptides were weighted and dissolved in an appropriate volume of buffer to obtain the desired concentration.
Background: ITC needs no label: the signal is the heat of the interaction.

Another assay has as its target T2, BAZ2A PHD (Homo sapiens, UniProt Q9UIF9).
T2 construct: The small PHDs (∼6.5 kDa) of both BAZ2A and BAZ2B; made in house
T2 sequence (Q9UIF9 1676-1726 limits assumed): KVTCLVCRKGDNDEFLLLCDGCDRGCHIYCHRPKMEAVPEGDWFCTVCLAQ
Nature of the assay: ITC, H3 peptides titrated into BAZ2A PHD (WT). As to conditions: for effect on binding, in words: compared with H3 10-mer WT or the peptide named in the words. How it is done:
as §1

Another assay addresses T3, BAZ2A PHD D1688N/E1689Q (Homo sapiens, UniProt Q9UIF9, D1688N/E1689Q).
T3 construct: Mutations were introduced into BAZ2A/B PHD fingers by polymerase chain reaction (PCR) amplification of the original construct; made in house
T3 sequence (Q9UIF9 1676-1726 D1688N/E1689Q limits assumed): T2 sequence (Q9UIF9 1676-1726 limits assumed) with D13N, E14Q
Briefly: ITC, H3 10-mer into BAZ2A PHD D1688N/E1689Q double mutant. To be noted: ITC 25°C, triplicate, mean ± s.e.m.; N fixed to 1 in fit; SEM. How it is done: (§2) Mutations were introduced into BAZ2A/B PHD fingers by polymerase chain reaction (PCR) amplification of the original construct using Phusion DNA Polymerase (Thermo Fisher Scientific) and a specific pair of primers for each mutation (Supplementary Table S4). The PCR amplification product was incubated with Dpn I (New England BioLabs) for 1 h at 37°C to digest the parental DNA strands and then used to transform Escherichia coli DH5α cells. Transformed cells were grown on lysogeny broth (LB) agar plates supplemented with 100 µg/ml ampicillin for 16 h at 37°C. Single colonies were picked to inoculate 5 ml of LB plus 100 µg/ml ampicillin and grown for 16 h at 37°C. […]
(§3) All calorimetric experiments were performed on a MicroCal iTC200 microcalorimeter (GE Healthcare) at 25°C in a buffer containing 20 mM HEPES at a pH of 8, 150 mM NaCl and 0.5 mM Tris(2-carboxyethyl) phosphine. […] The data were analyzed using the MicroCal™ software package subtracting the data from an independent titration of peptide into buffer to account for heat of dilution, and then fitted using a single-binding site model. Protein concentration was determined by measuring absorbance at 280 nm using the following extinction coefficients: BAZ2A PHD ε280 = 6990 M^−1 cm^−1 and BAZ2B PHD ε280 = 8480 M^−1 cm^−1. […]

The next assay has as its target T4, BAZ2A PHD E1689Q (Homo sapiens, UniProt Q9UIF9, E1689Q).
T4 construct: Mutations were introduced into BAZ2A/B PHD fingers by polymerase chain reaction (PCR) amplification of the original construct; made in house
T4 sequence (Q9UIF9 1676-1726 E1689Q limits assumed): T2 sequence (Q9UIF9 1676-1726 limits assumed) with E14Q
Nature of the assay: ITC, H3 10-mer into BAZ2A PHD E1689Q mutant. To be noted: ITC 25°C, triplicate, mean ± s.e.m.; SEM. The method, then:
as §2, §3

A further assay has as its target T5, BAZ2B PHD E1944K (Homo sapiens, UniProt Q9UIF8, E1944K).
T5 construct: Mutations were introduced into BAZ2A/B PHD fingers by polymerase chain reaction (PCR) amplification of the original construct; made in house
T5 sequence (Q9UIF8 1931-1981 E1944K limits assumed): T1 sequence (Q9UIF8 1931-1981 limits assumed) with E14K
Nature of the assay: ITC, H3 10-mer into BAZ2B PHD E1944K mutant. To be noted: ITC 25°C. How it is done: as §2, §3

Another assay has as its target T6, BAZ2B PHD E1944Q (Homo sapiens, UniProt Q9UIF8, E1944Q).
T6 construct: Mutations were introduced into BAZ2A/B PHD fingers by polymerase chain reaction (PCR) amplification of the original construct; made in house
T6 sequence (Q9UIF8 1931-1981 E1944Q limits assumed): T1 sequence (Q9UIF8 1931-1981 limits assumed) with E14Q
Briefly: ITC, H3 10-mer into BAZ2B PHD E1944Q mutant. As to conditions: ITC 25°C, triplicate, mean ± s.e.m.; N fixed to 1 in fit; SEM. The method, then:
as §2, §3

Another assay concerns the target T7, BAZ2A PHD E1689K (Homo sapiens, UniProt Q9UIF9, E1689K).
T7 construct: Mutations were introduced into BAZ2A/B PHD fingers by polymerase chain reaction (PCR) amplification of the original construct; made in house
T7 sequence (Q9UIF9 1676-1726 E1689K limits assumed): T2 sequence (Q9UIF9 1676-1726 limits assumed) with E14K
Nature of the assay: ITC, H3 10-mer into BAZ2A PHD E1689K mutant. To be noted: ITC 25°C, duplicate, mean ± s.e.m.; SEM. The method, then:
as §2, §3

Where [1] appears, read: ITC, 25°C, 20 mM HEPES pH 8, 150 mM NaCl, 0.5 mM TCEP, peptide 1.5–3 mM into protein 80–120 µM, single-site fit, error from fit (Table 2), read-out: KD.
Setting [2] is: KD, ITC, 25°C, 20 mM HEPES pH 8, 150 mM NaCl, 0.5 mM TCEP, peptide 1.5–3 mM into protein 80–120 µM, single-site fit, error from fit (Table 2).

Consider ARTAATARKS-NH2 [ARTAATARKS], for which the Kd on BAZ2B PHD (setting [1]) stood at 2.6 ± 0.1 µM; at BAZ2A PHD (setting [1]), 12.1 ± 0.3 µM.
In the same order, the values of `C[C@H](N)C(=O)N[C@@H](CCCNC(=N)N)C(=O)N[C@H](C(=O)N[C@@H](CCCCN)C(=O)N[C@@H](C)C(=O)N[C@H](C(=O)N[C@@H](C)C(=O)N[C@@H](CCCNC(=N)N)C(=O)N[C@@H](CCCCN)C(=O)N[C@@H](CO)C(N)=O)[C@@H](C)O)[C@@H](C)O` [ARTKATARKS] are 7 ± 0.2 µM and 9.3 ± 0.2 µM.
As to `C[C@H](N)C(=O)N[C@@H](CCCNC(=N)N)C(=O)N[C@H](C(=O)N[C@@H](CCCCN)C(=O)N[C@@H](CCC(N)=O)C(N)=O)[C@@H](C)O` [ARTKQ], the dissociation constant Kd came out at 190 ± 25 µM on BAZ2B PHD (setting [1]) and 210 ± 30 µM at BAZ2A PHD (setting [1]).
Regarding AATKQTARKS-NH2 [AATKQTARKS], the Kd at BAZ2B PHD (setting [1]) and at BAZ2A PHD (setting [1]) was greater than 1000 µM throughout. Also, the “effect on binding, in words” value on BAZ2B PHD (ITC) and on BAZ2A PHD (ITC) was “abolished binding” each time.
As for `C[C@H](N)C(=O)N[C@@H](CCCNC(=N)N)C(=O)N[C@H](C(=O)N[C@@H](CCCCN)C(=O)N[C@@H](CCC(N)=O)C(=O)N[C@@H](C)C(=O)N[C@@H](C)C(=O)N[C@@H](CCCNC(=N)N)C(=O)N[C@@H](CCCCN)C(=O)N[C@@H](CO)C(N)=O)[C@@H](C)O` [ARTKQAARKS], the values for the Kd at BAZ2B PHD (setting [1]) and at BAZ2A PHD (setting [1]) were 44.6 ± 0.8 µM and 55 ± 2 µM, respectively.
For the compound `C[C@H](N)C(=O)N[C@@H](CCCNC(=N)N)C(=O)N[C@H](C(=O)N[C@@H](CCCCN)C(N)=O)[C@@H](C)O` [ARTK] (H-ARTK-NH2), the Kd on BAZ2A PHD (setting [1]) stood at 100 ± 4 µM.
Regarding `C[C@H](N)C(=O)N[C@@H](CCCNC(=N)N)C(=O)N[C@H](C(=O)N[C@@H](C)C(=O)N[C@@H](CCC(N)=O)C(=O)N[C@H](C(=O)N[C@@H](C)C(=O)N[C@@H](CCCNC(=N)N)C(=O)N[C@@H](CCCCN)C(=O)N[C@@H](CO)C(N)=O)[C@@H](C)O)[C@@H](C)O` [ARTAQTARKS], the Kd at BAZ2B PHD (setting [1]) is 8.5 ± 0.2 µM; at BAZ2A PHD (setting [1]), 42 ± 2 µM.
For `C[C@H](N)C(=O)N[C@@H](CCCNC(=N)N)C(=O)N[C@H](C(=O)N[C@@H](CCCCN)C(=O)N[C@@H](CCC(N)=O)C(=O)N[C@H](C(=O)N[C@@H](C)C(=O)N[C@@H](CCCNC(=N)N)C(=O)N[C@@H](CCCCN)C(=O)N[C@@H](CO)C(N)=O)[C@@H](C)O)[C@@H](C)O` [ARTKQTARKS], the Kd at BAZ2B PHD (KD, BAZ2B PHD wt, ITC 25°C, triplicate, mean ± s.e.m. (Table 3), SEM) is 47 ± 2 µM; at BAZ2B PHD (setting [2]), 40 ± 0.5 µM; on BAZ2A PHD D1688N/E1689Q it was 810 ± 50 µM; at BAZ2A PHD E1689Q, 83 ± 7 µM; on BAZ2B PHD E1944K it was greater than 1000 µM; on BAZ2B PHD E1944Q, 660 ± 60 µM. Moreover, the Kd turned out to be 48 ± 2 µM at BAZ2A PHD (KD, BAZ2A PHD wt, ITC 25°C, triplicate, mean ± s.e.m. (Table 3), SEM); 51 ± 2 µM on BAZ2A PHD (setting [2]); 116 ± 6 µM on BAZ2A PHD E1689K. Moreover, at BAZ2B PHD E1944K, the KD result is listed as “completely abrogated binding”.
With ARAKQTARKS-NH2 [ARAKQTARKS], the equilibrium dissociation constant (Kd) at BAZ2B PHD (setting [1]) was greater than 5000 µM. In addition, the “effect on binding, in words” value on BAZ2B PHD (ITC) and at BAZ2A PHD (ITC) was “abolished binding” throughout. The KD result at BAZ2A PHD (ITC, 25°C, 20 mM HEPES pH 8, 150 mM NaCl, 0.5 mM TCEP, peptide 1.5–3 mM into protein 80–120 µM, single-site fit, error from fit (Table 2)) is given as “No binding”.
In the case of `C[C@H](N)C(=O)N[C@@H](CCCNC(=N)N)C(=O)N[C@H](C(=O)N[C@@H](C)C(N)=O)[C@@H](C)O` [ARTA] (H-ARTA-NH2), at BAZ2A PHD (setting [1]), the Kd was found to be 56 ± 2 µM.
With ARTGGTARKS-NH2 [ARTGGTARKS], the equilibrium dissociation constant (Kd) at BAZ2B PHD (setting [1]) was 166 ± 8 µM; at BAZ2A PHD (setting [1]), 143 ± 7 µM.
